Test results from ChEMBL document CHEMBL5038629, “Light-Triggered Fluorescence Self-Reporting Nitric Oxide Release from Coumarin Analogues for Accelerating Wound Healing and Synergistic Antimicrobial Applications” (J Med Chem, 2022).
Active and inactive are the calls of the source.

Key:
[1] = tested on: Staphylococcus aureus; assay: Inhibition of biofilm formation in methicillin-resistant Staphylococcus aureus assessed as increase in planktonic bacteria at 10 uM upon exposure to UV light irradiation and measured after 48 hrs in presence of levofloxacin by NB plate based imaging analysis; format: functional; design: scale not given: the % may be the effect or the level left
[2] = tested on: Staphylococcus aureus; assay: Inhibition of biofilm formation in methicillin-resistant Staphylococcus aureus assessed as decrease in biofilm mass at 10 uM upon exposure to UV light irradiation and measured after 48 hrs by dilution plate coating method; format: functional; conditions: light or radiation study
[3] = tested on: Staphylococcus aureus; assay: Inhibition of biofilm formation in methicillin-resistant Staphylococcus aureus assessed as biofilm dispersal effect at 10 uM incubated for 5 hrs followed by exposure to UV light irradiation for 1 min in presence of levofloxacin by crystal violet staining based analysis; format: functional; design: scale not given: the % may be the effect or the level left; conditions: time 301 min, 5.017 h
[4] = Stability of the compound in human HepG2 cells at 10 uM by DAQ probe based fluorescence analysis; format: ADME, cell-based; conditions: hepg2, 10 µM
[5] = NO releasing activity upon exposure to UV light irradiation in presence of GSH by fluorescence based analysis; format: functional
[6] = NO releasing activity upon exposure to UV light irradiation at pH 4 to 8 by fluorescence based analysis; format: functional
[7] = NO releasing activity in DMSO solvent upon exposure to UV light irradiation by fluorescence based analysis; format: functional
[8] = NO releasing activity upon exposure to UV light irradiation in presence of NaSO4 by fluorescence based analysis; format: functional
[9] = tested on: HUVEC; assay: Cytotoxicity against human HUVEC cells assessed as reduction in cell viability upto 60 uM measured after 8 hrs by CCK8 assay; format: functional, cell-based; conditions: dose microM <=60, time 8.0 hrs
[10] = NO releasing activity assessed as NO release efficiency at 60 uM by Griess assay relative to NaNO2; format: functional
[11] = Photolysis of compound in DMSO/PBS assessed as 4-methyl-7-(2-nitrobenzylamino)-2H-chromen-2-one and AMC formation along with NO release upon exposure to UV light and measured after 30 mins by HPLC analysis; format: functional
[12] = Stability of the compound in human L02 cells at 10 uM by DAQ probe based fluorescence analysis; format: ADME, cell-based; conditions: l02, 10 µM
[13] = tested on: HepG2; assay: NO releasing activity in human HepG2 cells assessed as increase in red fluorescence intensity at 10 uM upon exposure to UV light irradiation for 10s by DAQ probe based fluorescence analysis; format: ADME, cell-based; conditions: hepg2, 10 s
[14] = NO releasing activity upon exposure to UV light irradiation in presence of Trp by fluorescence based analysis; format: functional
[15] = NO releasing activity in EA solvent upon exposure to UV light irradiation by fluorescence based analysis; format: functional
[16] = NO releasing activity upon exposure to UV light irradiation at 50 to 70 degC measured after 4 to 8 hrs by fluorescence based analysis; format: functional; conditions: time 4-8 hrs
[17] = NO releasing activity upon exposure to UV light irradiation in presence of Cys by fluorescence based analysis; format: functional
[18] = NO releasing activity upon exposure to UV light irradiation in presence of Asp by fluorescence based analysis; format: functional
[19] = tested on: Staphylococcus aureus; assay: Inhibition of biofilm formation in methicillin-resistant Staphylococcus aureus assessed as increase in planktonic bacteria at 10 uM upon exposure to UV light irradiation and measured after 48 hrs by NB plate based imaging analysis; format: functional, organism-based
[20] = tested on: L02; assay: Cytotoxicity against human L02 cells assessed as reduction in cell viability upto 60 uM measured after 8 hrs by CCK8 assay; format: functional, cell-based; conditions: dose microM <=60, time 8.0 hrs
[21] = NO releasing activity assessed as NO release efficiency at 80 uM by Griess assay relative to NaNO2; format: functional
[22] = NO releasing activity upon exposure to UV light irradiation in presence of Ala by fluorescence based analysis; format: functional
[23] = NO releasing activity upon exposure to UV light irradiation in presence of Na2S by fluorescence based analysis; format: functional
[24] = NO releasing activity in MeOH solvent upon exposure to UV light irradiation by fluorescence based analysis; format: functional
[25] = tested on: Mus musculus; assay: Acceleration of wound healing in methicillin-resistant Staphylococcus aureus infected CD1 mouse assessed as boosted collagen deposition and granulation tissue in skin using UV light-irradiated compound at 10 uM, sc on days 0, 3, 7 and 14 in presence of levofloxacin and measured on day 14 by H and E staining based analysis; format: functional, organism-based; conditions: time 15.0 day
[26] = tested on: Mus musculus; assay: Acceleration of wound healing in methicillin-resistant Staphylococcus aureus infected CD1 mouse assessed as boosted collagen deposition and granulation tissue in skin using UV light-irradiated compound at 10 uM, sc on days 0, 3, 7 and 14 and measured on day 14 by H and E staining based analysis; format: functional, organism-based; conditions: time 15.0 day
[27] = tested on: RAW264.7; assay: Induction of angiogenesis in mouse RAW264.7 cells assessed as increase in cell proliferation upto 60 uM upon exposure to UV light irradiation and measured after 8 hrs by CCK8 assay; format: functional, cell-based; conditions: dose microM <=60, time 8.0 hrs
[28] = NO releasing activity assessed as NO release efficiency at 100 uM by Griess assay relative to NaNO2; format: functional
[29] = NO releasing activity at 20 uM upon exposure to UV light irradiation for 5 mins by EPR spectroscopy; format: functional
[30] = tested on: HUVEC; assay: Induction of angiogenesis in human HUVEC cells assessed as increase in tube formation upon exposure to UV light irradiation measured after 24 hrs; format: functional, cell-based
[31] = Photolysis of compound in DMSO/PBS assessed as 4-methyl-7-(2-nitrobenzylamino)-2H-chromen-2-one and AMC formation along with NO release upon exposure to UV light by mass spectrometry; format: functional
[32] = NO releasing activity upon exposure to UV light irradiation in presence of Arg by fluorescence based analysis; format: functional
[33] = NO releasing activity in DMK solvent upon exposure to UV light irradiation by fluorescence based analysis; format: functional
[34] = NO releasing activity upon exposure to UV light irradiation in presence of Ser by fluorescence based analysis; format: functional
[35] = NO releasing activity upon exposure to UV light irradiation in presence of […] by fluorescence based analysis; format: functional
[36] = tested on: Staphylococcus aureus; assay: Inhibition of biofilm formation in methicillin-resistant Staphylococcus aureus assessed as biofilm dispersal effect at 10 uM incubated for 5 hrs followed by exposure to UV light irradiation for 1 min by crystal violet staining based analysis; format: functional; design: scale not given: the % may be the effect or the level left; conditions: time 301 min, 5.017 h
[37] = NO releasing activity in TCM solvent upon exposure to UV light irradiation by fluorescence based analysis; format: functional
[38] = NO releasing activity assessed as NO release efficiency at 20 uM by Griess assay relative to NaNO2; format: functional
[39] = NO releasing activity in Tol solvent upon exposure to UV light irradiation by fluorescence based analysis; format: functional
[40] = NO releasing activity upon exposure to UV light irradiation at powers from 3 to 15 mW/cm2 by fluorescence based analysis; format: functional
[41] = NO releasing activity in Diox-solvent upon exposure to UV light irradiation by fluorescence based analysis; format: functional
[42] = NO releasing activity in IPA solvent upon exposure to UV light irradiation by fluorescence based analysis; format: functional
[43] = tested on: Staphylococcus aureus; assay: Antibacterial activity against methicillin-resisitant Staphylococcus aureus assessed as wrinkled bacterial membrane formation at 10 uM incubated for 5 hrs followed by exposure to UV light irradiation for 1 min in presence of levofloxacin by scanning electron microscopy; format: functional, organism-based; conditions: time 301.0 min
[44] = tested on: HUVEC; assay: Induction of angiogenesis in human HUVEC cells assessed as increase in cell proliferation upto 60 uM upon exposure to UV light irradiation and measured after 8 hrs by CCK8 assay; format: functional, cell-based; conditions: dose microM <=60, time 8.0 hrs
[45] = NO releasing activity assessed as NO release efficiency at 40 uM by Griess assay relative to NaNO2; format: functional
[46] = NO releasing activity assessed as increase in fluorescence intensity upon exposure to UV light at 0 to 18 uM by fluorescence based analysis; format: functional; conditions: dose 0-18 µM
[47] = NO releasing activity upon exposure to UV light irradiation in presence of Hcy by fluorescence based analysis; format: functional
[48] = tested on: Mus musculus; assay: Induction of angiogenesis in methicillin-resistant Staphylococcus aureus infected CD1 mouse assessed as increase in CD31 surface expression in skin by measuring increase in green fluorescence intensity using UV light-irradiated compound at 10 uM, sc on days 0, 3, 7 and 14 in presence of levofloxacin and measured on day 14 by immunofluorescence staining based analysis; format: functional, organism-based; conditions: time 15.0 day
[49] = NO releasing activity assessed as NO release efficiency at 10 uM by Griess assay relative to NaNO2; format: functional
[50] = tested on: L02; assay: NO releasing activity in human L02 cells assessed as increase in red fluorescence intensity at 10 uM upon exposure to UV light irradiation for 10s by DAQ probe based fluorescence analysis; format: ADME, cell-based; conditions: l02, 10 s
[51] = NO releasing activity in CAN solvent upon exposure to UV light irradiation by fluorescence based analysis; format: functional
[52] = tested on: L02; assay: Induction of angiogenesis in human L02 cells assessed as increase in cell proliferation upto 60 uM upon exposure to UV light irradiation and measured after 8 hrs by CCK8 assay; format: functional, cell-based; conditions: dose microM <=60, time 8.0 hrs
[53] = NO releasing activity upon exposure to UV light irradiation in presence of His by fluorescence based analysis; format: functional
[54] = NO releasing activity at 100 uM upon exposure to UV light irradiation by DAF-2 probe based fluorescence analysis; format: functional
[55] = NO releasing activity assessed as increase in fluorescence intensity upon exposure to UV light at 1 to 10 uM measured after 30 mins by fluorescence based analysis; format: functional; conditions: dose 1-10 µM
[56] = tested on: HUVEC; assay: Induction of angiogenesis in human HUVEC cells assessed as increase in cell migration rate upon UV light irradiation and measured after 12 to 24 hrs by cell scratch test; format: functional, cell-based; conditions: time 12-24 hrs
[57] = NO releasing activity assessed as increase in fluorescence intensity at 420 nm upon exposure to UV light measured after 0 to 5 mins by fluorescence based analysis; format: functional; conditions: time 0-5 min
[58] = tested on: Mus musculus; assay: Acceleration of wound healing in methicillin-resistant Staphylococcus aureus infected CD1 mouse assessed as increase in wound healing rate using UV light-irradiated compound at 10 uM, sc on days 0, 3, 7 and 14 in presence of 10 uM levofloxacin; format: functional, organism-based; conditions: time 15.0 day
[59] = NO releasing activity upon exposure to UV light irradiation in presence of HClO by fluorescence based analysis; format: functional
[60] = Toxicity in methicillin-resistant Staphylococcus aureus-infected CD1 mouse assessed as change in body weight using UV light-irradiated compound at 10 uM, sc on days 0, 3, 7 and 14; format: organism-based; conditions: in vivo, 360 h, time 15 day
[61] = tested on: Staphylococcus aureus; assay: Inhibition of biofilm formation in methicillin-resistant Staphylococcus aureus assessed as decrease in biofilm mass at 10 uM upon exposure to UV light irradiation and measured after 48 hrs in presence of levofloxacin by dilution plate coating method; format: functional; conditions: light or radiation study
[62] = tested on: RAW264.7; assay: Cytotoxicity against mouse RAW264.7 cells assessed as reduction in cell viability upto 60 uM measured after 8 hrs by CCK8 assay; format: functional, cell-based; conditions: dose microM <=60, time 8.0 hrs
[63] = NO releasing activity upon exposure to UV light irradiation in presence of Phe by fluorescence based analysis; format: functional
[64] = NO releasing activity in PBS buffer of 20% DMSO at 20 uM upon exposure to UV light irradiation by amperometric method; format: functional

Cc1cc(=O)oc2cc(N(Cc3ccccc3[N+](=O)[O-])N=O)ccc12
96.9%: Drug metabolism [10]
Stable: Stability [4] | Stability [12]
Metabolite detected: Drug metabolism [5] | Drug metabolism [6] | Drug metabolism [7] | Drug metabolism [8] | Drug metabolism [11] | Drug metabolism [14] | Drug metabolism [15] | Drug metabolism [16] | Drug metabolism [17] | Drug metabolism [18] | Drug metabolism [22] | Drug metabolism [23] | Drug metabolism [24] | Drug metabolism [29] | Drug metabolism [31] | Drug metabolism [32] | Drug metabolism [33] | Drug metabolism [34] | Drug metabolism [35] | Drug metabolism [37] | Drug metabolism [39] | Drug metabolism [40] | Drug metabolism [41] | Drug metabolism [42] | Drug metabolism [46] | Drug metabolism [47] | Drug metabolism [51] | Drug metabolism [53] | Drug metabolism [54] | Drug metabolism [55] | Drug metabolism [57] | Drug metabolism [59] | Drug metabolism [63] | Drug metabolism [64]
99.2%: Drug metabolism [38]
74%: Activity [3]
97.6%: Drug metabolism [21]
15%: Activity [36]
160%: Activity [1]
active: Activity [9] | Activity [19] | Activity [20] | Activity [25] | Activity [26] | Activity [27] | Activity [30] | Activity [43] | Activity [44] | Activity [48] | Activity [52] | Activity [56] | Activity [58] | Activity [62]
93%: Drug metabolism [28]
28%: inhibition at 10 µM [2]
99%: Drug metabolism [49]
98.6%: Drug metabolism [45]
54%: inhibition at 10 µM [61]
Metabolite_Detected: Drug metabolism [13] | Drug metabolism [50]
Non-Toxic: Activity [60]

C[C@H]1COc2c(N3CCN(C)CC3)c(F)cc3c(=O)c(C(=O)O)cn1c23.C[C@H]1COc2c(N3CCN(C)CC3)c(F)cc3c(=O)c(C(=O)O)cn1c23.O [LEVOFLOXACIN]
19%: inhibition at 10 µM [2]
15%: Activity [36]
